Assay results from article PMC6979384, “Characterization of the plant homeodomain (PHD) reader family for their histone tail interactions” (Epigenetics & Chromatin, 2020).

Key:
Test in all cases: Histone peptide microarray
Assay type in all cases: binding, human
[1] = tested on: AIRE (PP); conditions: histone peptide array, GST-tagged reader; arrays performed twice, n of 4
How it was run: (§1)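 GST-tagged PHD readers, 0.5 μM, probed on a microarray of 293 synthetic histone peptides carrying single or combinatorial PTMs (optimized Petell protocol). Signals are averaged over 4 replicates and expressed as relative binding.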

[2] = tested on: BAZ2B; conditions: histone peptide array, GST-tagged reader; arrays performed twice, n of 4
How it was run: as §1

[3] = tested on: BPTF (PB); conditions: histone peptide array, GST-tagged reader; PB = PHD + Bromodomain; arrays performed twice, n of 4
How it was run: as §1

[4] = tested on: CHD4 (PPCC); conditions: histone peptide array, GST-tagged reader; PPCC = Dual PHD + Dual Chromodomain; arrays performed twice, n of 4
How it was run: as §1

[5] = tested on: CHD5 (PCC); conditions: histone peptide array, GST-tagged reader; PCC = PHD + Dual Chromodomain; arrays performed twice, n of 4
How it was run: as §1

[6] = tested on: CHD5 (PPCC); conditions: histone peptide array, GST-tagged reader; PPCC = Dual PHD + Dual Chromodomain; arrays performed twice, n of 4
How it was run: as §1

[7] = tested on: DIDO1; conditions: histone peptide array, GST-tagged reader; arrays performed twice, n of 4
How it was run: as §1

[8] = tested on: DPF2 (PPC2W2); conditions: histone peptide array, GST-tagged reader; PPC2W2 = Dual PHD + C2W2-type Zn-finger; arrays performed twice, n of 4
How it was run: as §1

[9] = tested on: ING1; conditions: histone peptide array, GST-tagged reader; arrays performed twice, n of 4
How it was run: as §1

[10] = tested on: ING2; conditions: histone peptide array, GST-tagged reader; arrays performed twice, n of 4
How it was run: as §1

[11] = tested on: ING3; conditions: histone peptide array, GST-tagged reader; arrays performed twice, n of 4
How it was run: as §1

[12] = tested on: ING4; conditions: histone peptide array, GST-tagged reader; arrays performed twice, n of 4
How it was run: as §1

[13] = tested on: ING5; conditions: histone peptide array, GST-tagged reader; arrays performed twice, n of 4
How it was run: as §1

[14] = tested on: KDM4C (TTP); conditions: histone peptide array, GST-tagged reader; TTP = Tandem Tudor domain + PHD; arrays performed twice, n of 4
How it was run: as §1

[15] = tested on: KDM5A (1); conditions: histone peptide array, GST-tagged reader; arrays performed twice, n of 4
How it was run: as §1

[16] = tested on: KDM5A (3); conditions: histone peptide array, GST-tagged reader; arrays performed twice, n of 4
How it was run: as §1

[17] = tested on: KDM5B (1); conditions: histone peptide array, GST-tagged reader; arrays performed twice, n of 4
How it was run: as §1

[18] = tested on: KDM5B (3); conditions: histone peptide array, GST-tagged reader; arrays performed twice, n of 4
How it was run: as §1

[19] = tested on: KDM7A; conditions: histone peptide array, GST-tagged reader; arrays performed twice, n of 4
How it was run: as §1

[20] = tested on: MLL5; conditions: histone peptide array, GST-tagged reader; arrays performed twice, n of 4
How it was run: as §1

[21] = tested on: MORC3 (CW); conditions: histone peptide array, GST-tagged reader; CW = CW-type Zn-finger; arrays performed twice, n of 4
How it was run: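 A peptide microarray holding 293 synthetic histone peptides with individual or combinatorial modifications was probed with each GST-PHD protein at 0.5 μM. Values represent mean intensity (±SD) from four replicates.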

[22] = tested on: PHF13; conditions: histone peptide array, GST-tagged reader; arrays performed twice, n of 4
How it was run: as §1

[23] = tested on: PHF21A; conditions: histone peptide array, GST-tagged reader; arrays performed twice, n of 4
How it was run: as §1

[24] = tested on: PHF23; conditions: histone peptide array, GST-tagged reader; arrays performed twice, n of 4
How it was run: as §1

[25] = tested on: PHF2; conditions: histone peptide array, GST-tagged reader; arrays performed twice, n of 4
How it was run: as §1

[26] = tested on: PHF8; conditions: histone peptide array, GST-tagged reader; arrays performed twice, n of 4
How it was run: as §1

[27] = tested on: PHRF1 (RP); conditions: histone peptide array, GST-tagged reader; arrays performed twice, n of 4
How it was run: as §1

[28] = tested on: RAG2; conditions: histone peptide array, GST-tagged reader; arrays performed twice, n of 4
How it was run: as §1

[29] = tested on: SP140L; conditions: histone peptide array, GST-tagged reader; arrays performed twice, n of 4
How it was run: as §1

[30] = tested on: TAF3; conditions: histone peptide array, GST-tagged reader; arrays performed twice, n of 4
How it was run: as §1

[31] = tested on: TRIM66 (PB); conditions: histone peptide array, GST-tagged reader; PB = PHD + Bromodomain; arrays performed twice, n of 4
How it was run: as §1

Row | Substance | Array Heatmap signal, AIRE (PP) [1] | Array Heatmap signal, BAZ2B [2] | Array Heatmap signal, BPTF (PB) [3] | Array Heatmap signal, CHD4 (PPCC) [4] | Array Heatmap signal, CHD5 (PCC) [5] | Array Heatmap signal, CHD5 (PPCC) [6] | Array Heatmap signal, DIDO1 [7] | Array Heatmap signal, DPF2 (PPC2W2) [8] | Array Heatmap signal, ING1 [9] | Array Heatmap signal, ING2 [10] | Array Heatmap signal, ING3 [11] | Array Heatmap signal, ING4 [12] | Array Heatmap signal, ING5 [13] | Array Heatmap signal, KDM4C (TTP) [14] | Array Heatmap signal, KDM5A (1) [15] | Array Heatmap signal, KDM5A (3) [16] | Array Heatmap signal, KDM5B (1) [17] | Array Heatmap signal, KDM5B (3) [18] | Array Heatmap signal, KDM7A [19] | Array Heatmap signal, MLL5 [20] | further results
1 | H3 (15-34)K27ac: H3 15-34 | 0.5038 | 0.4845 | 0.3592 | 0.5674 | 0.7622 | 0.5983 | 0.6571 | 0.642 | 0.5528 | 0.5993 | 0.5008 | 0.4806 | 0.3933 | 0.5365 | 0.5009 | 0.4223 | 0.6588 | 0.4788 | 0.3922 | 0.5399 | Array Heatmap signal, MORC3 (CW) [21]: 0.3756; Array Heatmap signal, PHF13 [22]: 0.6352; Array Heatmap signal, PHF21A [23]: 0.4777; Array Heatmap signal, PHF23 [24]: 0.5579; Array Heatmap signal, PHF2 [25]: 0.4814; Array Heatmap signal, PHF8 [26]: 0.3727; Array Heatmap signal, PHRF1 (RP) [27]: 0.4538; Array Heatmap signal, RAG2 [28]: 0.2665; Array Heatmap signal, SP140L [29]: 0.3795; Array Heatmap signal, TAF3 [30]: 0.268; Array Heatmap signal, TRIM66 (PB) [31]: 0.5567
2 | H3 (15-34)K27but: H3 15-34 | 0.5516 | 0.4927 | 0.3698 | 0.6128 | 0.8263 | 0.5931 | 0.6557 | 0.6771 | 0.5341 | 0.591 | 0.4849 | 0.489 | 0.383 | 0.5459 | 0.5054 | 0.4198 | 0.6712 | 0.5015 | 0.4288 | 0.5529 | Array Heatmap signal, MORC3 (CW) [21]: 0.372; Array Heatmap signal, PHF13 [22]: 0.644; Array Heatmap signal, PHF21A [23]: 0.4988; Array Heatmap signal, PHF23 [24]: 0.5352; Array Heatmap signal, PHF2 [25]: 0.467; Array Heatmap signal, PHF8 [26]: 0.4166; Array Heatmap signal, PHRF1 (RP) [27]: 0.4393; Array Heatmap signal, RAG2 [28]: 0.2497; Array Heatmap signal, SP140L [29]: 0.3805; Array Heatmap signal, TAF3 [30]: 0.309; Array Heatmap signal, TRIM66 (PB) [31]: 0.6313
